Read-outs that look alike come from different tables or passages of the source.
Tests used:
[1] = system: α-isomaltosylglucosaccharide-forming enzyme; experiment: Influence of metal ions on the activity of α-isomaltosylglucosaccharide-forming enzyme (Strain C9); type: biochemical, Bacillus globisporus C9; details: for Relative activity (%): 1 mM of each metal-ion
Description: (§1) One unit activity of the α-isomaltosylglucosaccharide-forming enzyme is defined as the enzyme amount that forms one micromole of maltose per minute under the above enzymatic reaction conditions. Throughout the specification, the enzymatic activity of the α-isomaltosylglucosaccharide-forming enzyme means the unit(s) assayed as above.
(§2) The influence of metal ions on the activity of α-isomaltosylglucosaccharide-forming enzyme was examined in the presence of 1 mM of each metal-ion according to the assay for the enzyme activity.

[2] = system: α-isomaltosyl-transferring enzyme; experiment: Influence of metal ions on the activity of α-isomaltosyl-transferring enzyme (Strain C9); type: biochemical, Bacillus globisporus C9; details: for influence on the enzyme activity, in words: 1 mM; for Relative activity (%): 1 mM of each metal-ion
Description: The α-isomaltosyl-transferring enzyme was assayed for enzymatic activity by dissolving panose in 100 mM acetate buffer (pH 6.0) to give a concentration of 2% (w/v) for a substrate solution, adding a 0.5 ml of an enzyme solution to 0.5 ml of the substrate solution, enzymatically reacting the mixture solution at 35° C. for 30 min, suspending the reaction mixture by boiling for 10 min, and quantifying glucose, among the cyclotetrasaccharide and glucose formed in the reaction mixture, by the glucose oxidase method. One unit activity of the α-isomaltosyl-transferring enzyme is defined as the enzyme amount that forms one micromole of glucose per minute under the above enzymatic reaction conditions. Throughout the specification, the enzymatic activity of the α-isomaltosyl-transferring enzyme means the unit(s) assayed as above. […]

[3] = system: α-isomaltosyl-transferring enzyme; type: biochemical, Bacillus globisporus C11
Description: (§3) The α-isomaltosyl-transferring enzyme was assayed for enzymatic activity by dissolving panose in 100 mM acetate buffer (pH 6.0) to give a concentration of 2% (w/v) for a substrate solution, adding a 0.5 ml of an enzyme solution to 0.5 ml of the substrate solution, enzymatically reacting the mixture solution at 35° C. for 30 min, suspending the reaction mixture by boiling for 10 min, and quantifying glucose, among the cyclotetrasaccharide and glucose formed in the reaction mixture, by the glucose oxidase method. One unit activity of the α-isomaltosyl-transferring enzyme is defined as the enzyme amount that forms one micromole of glucose per minute under the above enzymatic reaction conditions. Throughout the specification, the enzymatic activity of the α-isomaltosyl-transferring enzyme means the unit(s) assayed as above.
(§4) The influence of metal ions on the activity of α-isomaltosyl-transferring enzyme was examined in the presence of 1 mM of each metal-ion according to the assay for the enzyme activity.

[4] = system: α-isomaltosyl-transferring enzyme; experiment: Influence of metal ions on the activity of α-isomaltosyl-transferring enzyme (Strain N75); type: biochemical, Bacillus globisporus N75; details: for influence on the enzyme activity, in words: 1 mM; for Relative activity (%): 1 mM of each metal-ion
Description: as §3, §4

[5] = system: α-isomaltosylglucosaccharide-forming enzyme; experiment: Influence of metal ions on the activity of α-isomaltosylglucosaccharide-forming enzyme (Strain N75); type: biochemical, Bacillus globisporus N75; details: for influence on the enzyme activity, in words: 1 mM; for Relative activity (%): 1 mM of each metal-ion
Description: as §1, §2

[6] = system: α-isomaltosylglucosaccharide-forming enzyme; experiment: Influence of metal ions on the activity of α-isomaltosylglucosaccharide-forming enzyme (Strain C11); type: biochemical, Bacillus globisporus C11; details: for influence on the enzyme activity, in words: 1 mM; for Relative activity (%): 1 mM of each metal-ion
Description: as §1
The influence of metal ions on the activity of α-isomaltosylglucosaccharide forming enzyme was examined in the presence of 1 mM of each metal-ion according to the assay for the enzyme activity.

[7] = system: α-isomaltosyl-transferring enzyme; experiment: Influence of metal ions on the activity of α-isomaltosyl-transferring enzyme (Strain S1); type: biochemical, Arthrobacter ramosus S1; details: for Relative activity (%): 1 mM of each metal-ion
Description: as §3, §4

[8] = system: α-isomaltosylglucosaccharide-forming enzyme; experiment: Influence of metal ions on the activity of α-isomaltosylglucosaccharide-forming enzyme (Strain A19); type: biochemical, Arthrobacter globiformis A19; details: for influence on the enzyme activity, in words: 1 mM; for Relative activity (%): 1 mM of each metal-ion

Question: Which “Relative activity (%)” value [1] does the source give for `O=C(O)CN(CCN(CC(=O)O)CC(=O)O)CC(=O)O` [EDTA, ethylenediaminetetraacetic acid, reference compound] here?
Answer: Its value is 20%.

Question: And the “influence on the enzyme activity, in words” value (“influence” for short) [2]?
Answer: Its value is “not inhibited”.

Question: What about the “Relative activity (%)” value [2] of the same compound?
Answer: The value was 104%.

Question: What about the “Relative activity (%)” value [3] of the same compound?
Answer: The value was 98%.

Question: And the “influence” value [3]?
Answer: The value was “not inhibited”.

Question: And the “influence” value [4]?
Answer: The value was “not inhibited”.

Question: What about the “Relative activity (%)” value [4] of the same compound?
Answer: Its value is 92%.

Question: And the “influence” value [5]?
Answer: The value was “greatly inhibited”.

Question: What about the “Relative activity (%)” value [5] of the same compound?
Answer: The value was 35%.

Question: And the “influence” value [6]?
Answer: The value was “greatly inhibited”.

Question: What about the “Relative activity (%)” value [6] of the same compound?
Answer: Its value is 24%.

Question: And the “Relative activity (%)” value [7]?
Answer: The value was 91%.

Question: And the “influence” value [8]?
Answer: Its value is “greatly inhibited”.

Question: And the “Relative activity (%)” value [8]?
Answer: Its value is 2%.

Question: What does the source list for `[Hg+2]` [Hg^2+]?
Answer: influence on the enzyme activity, in words ([1]; 1 mM): greatly inhibited; Relative activity (%) [1]: 4%; influence on the enzyme activity, in words [2]: greatly inhibited; Relative activity (%) [2]: 1%; influence on the enzyme activity, in words ([3]; 1 mM): greatly inhibited; Relative activity (%) ([3]; 1 mM of each metal-ion): 2%; influence on the enzyme activity, in words [4]: greatly inhibited; Relative activity (%) [4]: 0.5%; influence on the enzyme activity, in words [5]: greatly inhibited; Relative activity (%) [5]: 1%; influence on the enzyme activity, in words [6]: greatly inhibited; Relative activity (%) [6]: 4%; influence on the enzyme activity, in words ([7]; 1 mM): greatly inhibited; Relative activity (%) [7]: 0.1%; influence on the enzyme activity, in words [8]: greatly inhibited; Relative activity (%) [8]: 0%

Question: `[Pb+2]` [Pb^2+] was tested. Which “Relative activity (%)” value [1] did it give?
Answer: Its value is 103%.

Question: And the “Relative activity (%)” value [2]?
Answer: Its value is 89%.

Question: And the “Relative activity (%)” value ([3]; 1 mM of each metal-ion)?
Answer: The value was 74%.

Question: What about the “Relative activity (%)” value [4] of the same compound?
Answer: The value was 69%.

Question: And the “Relative activity (%)” value [5]?
Answer: Its value is 86%.

Question: What about the “Relative activity (%)” value [6] of the same compound?
Answer: Its value is 101%.

Question: And the “Relative activity (%)” value [7]?
Answer: The value was 85%.

Question: What about the “Relative activity (%)” value [8] of the same compound?
Answer: The value was 43%.

Question: Which “Relative activity (%)” value [1] does the source give for `[Sr+2]` [Sr^2+] here?
Answer: Its value is 80%.

Question: And the “Relative activity (%)” value [2]?
Answer: Its value is 101%.

Question: What about the “Relative activity (%)” value ([3]; 1 mM of each metal-ion) of the same compound?
Answer: The value was 93%.

Question: And the “Relative activity (%)” value [4]?
Answer: Its value is 91%.

Question: What about the “Relative activity (%)” value [5] of the same compound?
Answer: The value was 85%.

Question: What about the “influence” value [6] of the same compound?
Answer: Its value is “also inhibited”.

Question: What about the “Relative activity (%)” value [6] of the same compound?
Answer: Its value is 83%.

Question: And the “Relative activity (%)” value [7]?
Answer: The value was 101%.

Question: And the “Relative activity (%)” value [8]?
Answer: Its value is 102%.

Question: How did the “Relative activity (%)” value [1] turn out when `[Zn+2]` [Zn^2+] was run?
Answer: The value was 92%.

Question: What about the “Relative activity (%)” value [2] of the same compound?
Answer: Its value is 88%.

Question: What about the “Relative activity (%)” value ([3]; 1 mM of each metal-ion) of the same compound?
Answer: The value was 83%.

Question: What about the “Relative activity (%)” value [4] of the same compound?
Answer: Its value is 75%.

Question: What about the “Relative activity (%)” value [5] of the same compound?
Answer: Its value is 82%.

Question: And the “Relative activity (%)” value [6]?
Answer: Its value is 91%.

Question: And the “Relative activity (%)” value [7]?
Answer: Its value is 78%.

Question: And the “Relative activity (%)” value [8]?
Answer: Its value is 56%.

— US7811797B2, “α-isomaltosylglucosaccharide-forming enzyme, process and uses of the same” (Kabushiki Kaisha Hayashibara Seibutsu Kagaku Kenkyujo, priority 2000, dated 2010)
